Publication PMC10231375, “HDR, the last enzyme in the MEP pathway, differently regulates isoprenoid biosynthesis in two woody plants” (Plant Physiology, 2023)

Experiments:
PaHDR2 = system: T1, PaHDR2; test: LC-MS/MS of DMADP + IDP, initial velocities, Lineweaver-Burk; assay type: biochemical, Picea abies; details: anaerobic; 1 mM methyl viologen, 3 mM sodium dithionite, MgCl2; pH 6.5; 30 °C or 35 °C; text calls PaHDR1 the lower-affinity enzyme, against the printed order of Km values; Figure 3 legend
T1 construct: gene HDR2; plastid transit peptide removed (borders only in supplemental primers); E. coli BL21-AI; anaerobic glutathione column; [4Fe-4S] enzyme

PaHDR1 = system: T2, PaHDR1; test: as above; assay type: biochemical, Picea abies; details: anaerobic; 1 mM methyl viologen, 3 mM sodium dithionite, MgCl2; pH 6.5; 30 °C or 35 °C
T2 construct: gene HDR1; plastid transit peptide removed (borders only in supplemental primers); E. coli BL21-AI; anaerobic glutathione column; [4Fe-4S] enzyme

## C/C(=C\COP(=O)(O)OP(=O)(O)O)CO [HMBDP, (E)-4-hydroxy-3-methylbut-2-enyl diphosphate]
PaHDR2
  Km: 21.2 µM
PaHDR1
  Km: 15.9 µM
